One assay concerns TXNIP mRNA. As to the kind of experiment: TXNIP mRNA expression (RT-PCR) in THP1 cells under 25 mM glucose. Type of assay: cell-based, human. The settings on record: THP1, 25 mM glucose, 5 uM compound, 72 h / three days (FIG. 13). The procedure:
FIGS. 9A-9B. FIG. 9A. […] THP1 cells were cultured in 25 mM glucose with the indicated concentrations of C1 for 72 h. Cell were collected for total RNA preparation. RT-PCR were performed and data shown are the mean+SEM from triplicates. Statistical analysis was performed using one-way ANOVA, *<0.0001. FIG. 9B. […] THP1 cells were cultured in 25 mM glucose and C1 (uM) as indicated for 72 hours and collected for total RNA preparation. RT-PCR was performed. Data shown are the mean+SEM from triplicates. Statistical analysis was performed using one-way ANOVA: *<0.02; **<0.0001.
FIG. 13. C1 analogs affects TXNIP mRNA expression in THP1 cells. THP1 cells were cultured in 25 mM glucose with 5 uM of compounds for 72 h. Total RNA was collected and RT-PCR was performed in triplicate and data shown are the mean+SEM. Statistical analysis was performed using one-way ANOVA: *<0.0001.
RNA extraction and quantitative RT-PCR. RNA was extracted using the Direct-zol™ RNA MiniPrep Plus (Zymo Research). […] Diluted cDNA was quantified using real-time PCR performed with Power SYBR Green qPCR MasterMix (Applied Biosystem) and 7500 real-time PCR system (Applied Biosystems). […]
RNA extraction and quantitative RT-PCR. […] Diluted cDNA was quantified using real-time PCR performed with Power SYBR Green qPCR MasterMix (Applied Biosystem) and 7500 real-time PCR system (Applied Biosystems). […]

The target in assay [1] is T1, TXNIP-TRX complex (Homo sapiens, UniProt Q9H3M7).
T1 construct: Co-immunoprecipitation (Co-IP) of TXNIP with TRX in THP 1 monocytes cells treated with compounds under high glucose condition; endogenous in cells; host or cells: THP1 human monocytes cultured in 25 mM glucose
T1 sequence (Q9H3M7 1-391): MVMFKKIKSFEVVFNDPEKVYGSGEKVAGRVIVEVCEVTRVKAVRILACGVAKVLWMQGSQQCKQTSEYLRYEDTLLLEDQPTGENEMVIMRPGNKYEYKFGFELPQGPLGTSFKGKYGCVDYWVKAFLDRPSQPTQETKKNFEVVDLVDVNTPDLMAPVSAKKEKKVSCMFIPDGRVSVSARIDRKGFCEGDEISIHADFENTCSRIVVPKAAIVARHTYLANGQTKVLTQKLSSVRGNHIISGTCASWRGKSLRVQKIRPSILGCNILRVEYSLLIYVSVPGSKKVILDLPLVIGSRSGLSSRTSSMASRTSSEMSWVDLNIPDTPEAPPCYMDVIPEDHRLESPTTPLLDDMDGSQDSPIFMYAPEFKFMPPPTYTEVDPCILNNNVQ
As to the kind of experiment: Co-IP using extracts from high glucose treated THP1 cells in the presence of compounds. The format is biochemical. The settings on record: extracts of THP1 cells treated with 25 mM glucose 3 days; compounds added to extract (5 uM). How it is done: Assay 2: Co-IP using extracts from THP 1 cells treated high glucose and in the presence of compounds. In this assay, TXNIP is already highly expressed (because the cells are treated with HG), we assume there is high concentration of TXNIP/TRX complexes in the cell extract. Co-IPs were done in these extracts through adding TRX antibody and compounds. If a compound is able to break the (pre-formed) TXNIP/TRX complex, there will be a reduced signal (band intensity) in the assay.
Co-IP with THP1 high glucose treated extract in the presence of the compounds. THP1 cells were treated with 25 mM glucose for 3 days, the cell extract were prepared. Them 300 ul extract were used for TP. Compounds were added to 5 uM Co-IP were followed according to the Co-IP protocol.
(§1) 1. Transfer the cultured cells from the culture dish to a 15-mL conical tube. 2. Centrifuge at 500×g for 2 min at 4° C. and remove the supernatant. 3. Wash with ice-cold PBS and centrifuge at 500×g for 2 min at 4° C. Remove the supernatant. 4. Repeat Step 3 twice.
5. Resuspend the cell pellet in ice-cold cell lysis buffer (1 mL per 1×10^7 cells) and incubate on ice for 10 min. 6. […]
(§2) Note: Pre-clearing the lysate is recommended to reduce the non-specific binding. However, if the protein is detected by western blotting, pre-clearing may not be necessary unless a contaminating protein is interfering with visualization of the protein of interest. […]

The subject of another assay is TXNIP. To be noted: as reported in the literature, cited from earlier work.
The target in assay [2] is T1, TXNIP-TRX complex. Put plainly: Co-IP of TXNIP with TRX in THP1 monocytes treated with compounds under high glucose. The settings on record: THP1 cells, compounds added to cells in culture overnight, glucose to 25 mM, 72-96 h; anti-TRX IP. Type of assay: cell-based. The procedure:
FIGS. 4A-4B. Co-IP with anti-TRX in THP 1 cells treated with compounds under high glucose condition. THP1 cells were treated by 10 uM compounds over night, then glucose was added up to 25 mM. The cells were cultured for 72-96 h. Cell extracts were prepared using cell extract buffer (Thermo Fisher Scientific) and Co-IP were performed with mouse anti-TRX (abcam).
Assay 1: Co-immunoprecipitation (Co-IP) of TXNIP with TRX in THP 1 monocytes cells treated with compounds under high glucose condition. In this assay, we looked for compounds that can interfere with the interaction between TXNIP and TRX in THP-1 monocytes treated with HG. So here compounds are added to cells in culture. […] So we picked the candidates only if the results are repeatable.
Co-IP with compounds treated THP1 under high glucose condition. THP1 cells were treated with compounds (2.5 uM) overnight and glucose was add to 25 mM and culture for 3-5 days, then coIP were carried using co-IP protocol.
as §1
5. Resuspend the cell pellet in ice-cold cell lysis buffer (1 mL per 1×10^7 cells) and incubate on ice for 10 min. 6. Sonicate cells in ice bath three times for 5 second pulses each. 7. Centrifuge at 13,000×g at 4° C. for 10 min, and transfer the supernatant to a fresh tube. Store the tube on ice for further use, or for long storage at −80° C.
8. Resuspend the magnetic beads by pipetting up and down for several times. 9. Transfer 20 μL of bead slurry to a fresh tube. Place the tube in a magnetic separation rack […]. Carefully remove the supernatant once the solution is clear. 10. […]
as §2

Where two headings read alike, the source gives them in different places.

Results on two compounds are retold here after patent US11974990B2, “TXNIP-TRX complex inhibitors and methods of using the same” (City of Hope, priority 2018, dated 2024).

For the compound `CC(=O)Nc1ccc(NC(=O)C(C)N2C(=O)c3ccncc3C2=O)cc1` (centres unmarked) [Compound A31], the “TXNIP mRNA expression” value in the assay with TXNIP mRNA is reported as “displayed significant inhibitory effects on TXNIP mRNA expression”.

Regarding `CN(C)C(=N)N=C(N)N` [metformin, reference compound], at TXNIP-TRX complex [1], the “effect on pre-formed TXNIP/TRX complex (co-IP band intensity)” value is listed as “does not have any effect on TXNIP/TRX complex”. For the same compound, the TXNIP expression entry in the assay on TXNIP is reported as “reduce TXNIP expression”; in the assay on TXNIP (listed as Metformin), “can reduce the expression of TXNIP through the AMPK pathway”. Besides, the “HG-induced TXNIP-TRX co-IP band intensity” value at TXNIP-TRX complex [2] is “reduces the intensity of the band showing TXNIP-TRX binding”.
